From patent publication US20160122386A1, “V1A RECEPTOR AGONISTS” (FERRING B.V., priority 2014, published 2016)
Where two headings read alike, the source gives them in different places. Starred links: 1 amine or outer side, 2 acyl side, 3 side chain; linkers in the order of their positions; H or OH if unused. Positions of bridges follow the written chain, without caps; N, C: chain ends. Non-standard residues stand in square brackets, D forms with d. Residues, ends and D or L forms follow the SMILES beside them. Chains are numbered I, II in the order given. *: point of attachment. isoGln = NC(=O)[C@H](CCC(=O)[*:2])N[*:1]; εLys = N[C@@H](CCCCN[*:1])C(=O)[*:2]; Orn = NCCC[C@H](N)C(=O)O; Dab = NCC[C@H](N)C(=O)O; PhAc = O=C(Cc1ccccc1)*

Target: T1, human V1aR (Homo sapiens, UniProt P37288)
T1 construct: expressed in transfected cells
Test: Agonist activity at vasopressin V1a receptors, cell-based FLIPR calcium assay
Conditions: for Emax: read-out: Efficacy Avg. (%)
Procedure: Efficacy (% MPE) is also determined as the percentage of maximal possible effect. This agonist assay utilizes cells from a stable cell line (HEK-flpin) expressing the vasopressin V1a receptor. Intracellular calcium increase in response to agonist is measured through real-time fluorescence of an intracellular calcium-sensitive dye. Cells are exposed to varying concentrations of test agonist compounds whereupon release of intracellular calcium is measured to determine the agonist potency and efficacy.
The cell line stably expresses the lacZ-Zeocin™ fusion gene and is designed for use with the Flp-In™ expression vector containing the gene of interest and the Flp recombinase expression plasmid, pOG44. The cell line contains a single integrated Flp Recombination Target (FRT) site from pFRT/lacZeo or pFRT/lacZeo2. To generate the HEK-flpin cell line stably expressing the human V1aR, the cells were co-transfected with the Flp-In™ expression vector containing the gene of interest (pcDNA5/FRT-hV1aR) and the Flp recombinase expression plasmid pOG44. Flp recombinase mediates insertion of the Flp-In™ expression vector into the genome at the integrated FRT site through site-specific DNA recombination. Stable cell lines expressing the hV1aR from the Flp-In™ expression vector can be generated by selection using hygromycin B. See Life Technologies/Invitrogen manual, Growth and Maintenance of Flp-In™ Cell Lines, Version E, published Feb.
Efficacy of this compound was set to be 100%. A stock solution of 5 mM was made up in DMSO and stored at −20° C.
HEK-flpin-hV1aR, cmcqV1aR, dV1aR and pV1aR cells were maintained in DMEM containing 10% (v/v) FBS-HI, 4 mM GlutaMAX™-I, 25 μg/mL Hygromycin B at 37° C. under 5% CO2 in a humidified atmosphere. Subculture was achieved by splitting semi-confluent cultures 1:3 to 1:6.
All compounds were made up in 100% DMSO at 10 mM stock concentrations and stored at −20° C. The compounds were allowed to thaw just before the assay. […] Typical dilution procedure of 10× final assay concentration involved a 1:100 top dilution (e.g., 2 μl Stock into 198 μl dilution medium) followed by half-log serial dilutions (e.g., 25.3 μl into 54.7 μl dilution medium supplemented with 1% DMSO (v/v)). (Dilution media consisted of phenol-red free DMEM containing 10% FBS-HI, 4 mM GlutaMAX™-I). […] The final DMSO concentration in the assay was 0.1%.
Loading Buffer was prepared by dissolving 1 vial of Calcium 4 Assay reagent in 100 mL of 1× HBSS-20 mM Hepes buffer.
The cells were loaded with Loading Buffer as follows. Cell plates were removed from the incubator and 20 μl of Loading Buffer containing probenecid (2.5 mM) was added to each well. The cells were incubated for 1 hr at 37° C. under 5% CO2 in a humidified atmosphere. The calcium image was obtained as follows.
The cell plates were transferred to FLIPR Tetra, along with a 384 well V-bottom plate pre-loaded with half-log concentrations of test compounds at 10× final test concentrations. The remaining steps of the assay were carried forward by FLIPR Tetra. A baseline reading was taken at 1-second (s) intervals for 5s followed by the addition of 5 μl of 10× compounds (test, reference, or Blank). The agonist-induced fluorescence signal was then measured for 180 s with initial 120 readings at 1-second intervals followed by 20 readings at 3-second intervals. Overall, each well in the FLIPR assay was composed of the following components in a total volume of 50 μl: 20 μl cells; 20 μl Calcium 4 Loading Buffer; […] 10× test or reference compound.

[1] = HEK-flpin cells stably expressing hV1aR, intracellular calcium fluorescence, averaged, read-out: EC50 (Avg)

T1 sequence (P37288 whole entry): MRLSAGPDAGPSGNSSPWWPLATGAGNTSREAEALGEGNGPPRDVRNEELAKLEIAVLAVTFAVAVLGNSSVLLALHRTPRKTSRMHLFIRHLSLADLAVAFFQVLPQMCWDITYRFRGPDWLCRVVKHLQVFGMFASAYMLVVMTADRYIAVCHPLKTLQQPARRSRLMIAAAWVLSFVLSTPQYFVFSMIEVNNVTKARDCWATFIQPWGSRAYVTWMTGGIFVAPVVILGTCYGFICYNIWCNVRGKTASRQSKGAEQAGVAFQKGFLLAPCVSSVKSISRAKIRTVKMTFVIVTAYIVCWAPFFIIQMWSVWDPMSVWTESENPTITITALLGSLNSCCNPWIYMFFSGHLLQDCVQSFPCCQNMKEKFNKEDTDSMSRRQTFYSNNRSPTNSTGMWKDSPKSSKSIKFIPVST

EC50 [1]	Structure (SMILES)	EC50	Emax
–	CC[C@H](C)[C@@H]1NC(=O)[C@H](Cc2ccccc2)NC(=O)[C@@H](N)CSSC[C@@H](C(=O)N2CCC[C@H]2C(=O)N[C@@H](CCCNCCCCCNC(=O)CC[C@H](NC(=O)[C@H](CCCNC(=N)N)NC(=O)[C@@H]2CCCN2C(=O)[C@H](CCCCN)NC(=O)[C@H](CC(N)=O)NC(=O)[C@H](CCC(N)=O)NC(=O)[C@H](Cc2ccccc2)NC(=O)[C@@H](Cc2ccc(OC)cc2)NC(=O)Cc2ccccc2)C(N)=O)C(=O)NCC(N)=O)NC(=O)[C@H](CC(N)=O)NC(=O)[C@H](CCC(N)=O)NC1=O [Compound 12]	2.3 nM	39%
–	CC[C@H](C)[C@@H]1NC(=O)[C@H](Cc2ccccc2)NC(=O)[C@@H](N)CSSC[C@@H](C(=O)N2CCC[C@H]2C(=O)N[C@@H](CCCNCCCCCNC(=O)CC[C@H](NC(=O)[C@H](CCCNC(=N)N)NC(=O)[C@@H]2CCCN2C(=O)[C@H](Cc2c[nH]cn2)NC(=O)[C@H](CC(N)=O)NC(=O)[C@H](CCC(N)=O)NC(=O)[C@H](Cc2ccccc2)NC(=O)[C@@H](Cc2ccc(OC)cc2)NC(=O)Cc2ccccc2)C(N)=O)C(=O)NCC(N)=O)NC(=O)[C@H](CC(N)=O)NC(=O)[C@H](CCC(N)=O)NC1=O [Compound 13]	2.4 nM	48%
–	CC[C@H](C)[C@@H]1NC(=O)[C@H](Cc2ccccc2)NC(=O)[C@@H](N)CSSC[C@@H](C(=O)N2CCC[C@H]2C(=O)N[C@@H](CCCNCCCCCNC(=O)CC[C@H](NC(=O)[C@H](CCCNC(=N)N)NC(=O)[C@@H]2CCCN2C(=O)[C@H](CCC(N)=O)NC(=O)[C@H](CC(N)=O)NC(=O)[C@H](CCC(N)=O)NC(=O)[C@H](Cc2ccccc2)NC(=O)[C@@H](Cc2ccc(OC)cc2)NC(=O)Cc2ccccc2)C(N)=O)C(=O)NCC(N)=O)NC(=O)[C@H](CC(N)=O)NC(=O)[C@H](CCC(N)=O)NC1=O [Compound 14]	2.1 nM	37%
–	CC[C@H](C)[C@@H]1NC(=O)[C@H](Cc2ccccc2)NC(=O)[C@@H](N)CSSC[C@@H](C(=O)N2CCC[C@H]2C(=O)N[C@@H](CCCNCCCCCNC(=O)CC[C@H](NC(=O)[C@H](CCCNC(=N)N)NC(=O)[C@@H]2CCCN2C(=O)[C@H](CCCNC(N)=O)NC(=O)[C@H](CC(N)=O)NC(=O)[C@H](CCC(N)=O)NC(=O)[C@H](Cc2ccccc2)NC(=O)[C@@H](Cc2ccc(OC)cc2)NC(=O)Cc2ccccc2)C(N)=O)C(=O)NCC(N)=O)NC(=O)[C@H](CC(N)=O)NC(=O)[C@H](CCC(N)=O)NC1=O [Compound 15]	2.3 nM	44%
–	CC[C@H](C)[C@@H]1NC(=O)[C@H](Cc2ccccc2)NC(=O)[C@@H](N)CSSC[C@@H](C(=O)N2CCC[C@H]2C(=O)N[C@@H](CCCNCCCCCNC(=O)CC[C@H](NC(=O)[C@H](CCCNC(=N)N)NC(=O)[C@@H]2CCCN2C(=O)[C@H](CCN)NC(=O)[C@H](CC(N)=O)NC(=O)[C@H](CCC(N)=O)NC(=O)[C@H](Cc2ccccc2)NC(=O)[C@@H](Cc2ccc(OC)cc2)NC(=O)Cc2ccccc2)C(N)=O)C(=O)NCC(N)=O)NC(=O)[C@H](CC(N)=O)NC(=O)[C@H](CCC(N)=O)NC1=O [Compound 16]	2.4 nM	46%
2.9 nM	CCCCCCC(=O)N[C@H](Cc1ccc(OC)cc1)C(=O)N[C@@H](Cc1ccccc1)C(=O)N[C@@H](CCC(N)=O)C(=O)N[C@@H](CC(N)=O)C(=O)N[C@@H](C)C(=O)N1CCC[C@H]1C(=O)N[C@@H](CCCNC(=N)N)C(=O)N[C@@H](CCC(=O)NCCCCCCNCCC[C@H](NC(=O)[C@@H]1CCCN1C(=O)[C@@H]1CSSC[C@H](N)C(=O)N[C@@H](Cc2ccccc2)C(=O)N[C@@H]([C@@H](C)CC)C(=O)N[C@@H](CCC(N)=O)C(=O)N[C@@H](CC(N)=O)C(=O)N1)C(=O)NCC(N)=O)C(N)=O [Compound 17]	–	62%
–	CC[C@H](C)[C@@H]1NC(=O)[C@H](Cc2ccccc2)NC(=O)[C@@H](N)CSSC[C@@H](C(=O)N2CCC[C@H]2C(=O)N[C@@H](CCNC(=O)[C@@H](N)CCCCNC(=O)CC[C@H](NC(=O)[C@H](CCCNC(=N)N)NC(=O)[C@@H]2CCCN2C(=O)[C@H](C)NC(=O)[C@H](CC(N)=O)NC(=O)[C@H](CCC(N)=O)NC(=O)[C@H](Cc2ccccc2)NC(=O)[C@@H](Cc2ccc(OC)cc2)NC(=O)Cc2ccccc2)C(N)=O)C(=O)NCC(N)=O)NC(=O)[C@H](CC(N)=O)NC(=O)[C@H](CCC(N)=O)NC1=O [Compound 18] (I: H-CFIQNCP[Dab]G-NH2 / II: PhAc-[dY](Me)FQNAPR[isoGln][εLys]; disulfide I:1-I:6; amide I:8-II:C)	3.9 nM	49%
2.5 nM	CC[C@H](C)[C@@H]1NC(=O)[C@H](Cc2ccccc2)NC(=O)[C@@H](N)CSSC[C@@H](C(=O)N2CCC[C@H]2C(=O)N[C@@H](CCCNCCCCCCNC(=O)CC[C@H](NC(=O)[C@H](CCCNC(=N)N)NC(=O)[C@@H]2CCCN2C(=O)[C@H](C)NC(=O)[C@H](CC(N)=O)NC(=O)[C@H](CCC(N)=O)NC(=O)[C@H](Cc2ccccc2)NC(=O)[C@@H](Cc2ccc(OC)cc2)NC(=O)C2CCCCC2)C(N)=O)C(=O)NCC(N)=O)NC(=O)[C@H](CC(N)=O)NC(=O)[C@H](CCC(N)=O)NC1=O [Compound 19]	–	50%
–	CC[C@H](C)[C@@H]1NC(=O)[C@H](Cc2ccccc2)NC(=O)[C@@H](N)CSSC[C@@H](C(=O)N2CCC[C@H]2C(=O)N[C@@H](CCCNCCCCCNC(=O)CCNC(=O)CC[C@H](NC(=O)[C@H](CCCNC(=N)N)NC(=O)[C@@H]2CCCN2C(=O)[C@H](C)NC(=O)[C@H](CC(N)=O)NC(=O)[C@H](CCC(N)=O)NC(=O)[C@H](Cc2ccccc2)NC(=O)[C@@H](Cc2ccc(OC)cc2)NC(=O)Cc2ccccc2)C(N)=O)C(=O)NCC(N)=O)NC(=O)[C@H](CC(N)=O)NC(=O)[C@H](CCC(N)=O)NC1=O [Compound 20]	2.7 nM	42%
1.5 nM	CC[C@H](C)[C@@H]1NC(=O)[C@H](Cc2ccccc2)NC(=O)[C@@H](N)CSSC[C@@H](C(=O)N2CCC[C@H]2C(=O)N[C@@H](CCCNCCCCCCNC(=O)CC[C@H](NC(=O)[C@H](CCCNC(=N)N)NC(=O)[C@@H]2CCCN2C(=O)[C@H](C)NC(=O)[C@H](CC(N)=O)NC(=O)[C@H](CCC(N)=O)NC(=O)[C@H](Cc2ccccc2)NC(=O)[C@@H](Cc2ccc(OC)cc2)NC(=O)CC(C)C)C(N)=O)C(=O)NCC(N)=O)NC(=O)[C@H](CC(N)=O)NC(=O)[C@H](CCC(N)=O)NC1=O [Compound 21]	–	47%
–	CC[C@H](C)[C@@H]1NC(=O)[C@H](Cc2ccccc2)NC(=O)[C@@H](N)CSSC[C@@H](C(=O)N2CCC[C@H]2C(=O)N[C@@H](CCCNC(=O)[C@@H](N)CCCCNC(=O)CC[C@H](NC(=O)[C@H](CCCNC(=N)N)NC(=O)[C@@H]2CCCN2C(=O)[C@H](CCCNC(=N)N)NC(=O)[C@H](CC(N)=O)NC(=O)[C@@H](NC(=O)[C@H](Cc2ccccc2)NC(=O)[C@@H](Cc2ccc(OC)cc2)NC(=O)Cc2ccccc2)[C@@H](C)O)C(N)=O)C(=O)NCC(N)=O)NC(=O)[C@H](CC(N)=O)NC(=O)[C@H](CCC(N)=O)NC1=O [Compound 22] (I: H-CFIQNCP[Orn]G-NH2 / II: PhAc-[dY](Me)FTNRPR[isoGln][εLys]; disulfide I:1-I:6; amide I:8-II:C)	0.95 nM	29%
–	CC[C@H](C)[C@@H]1NC(=O)[C@H](Cc2ccccc2)NC(=O)[C@@H](O)CSSC[C@@H](C(=O)N2CCC[C@H]2C(=O)N[C@@H](CCCNCCCCCNC(=O)CC[C@H](NC(=O)[C@H](CCCNC(=N)N)NC(=O)[C@@H]2CCCN2C(=O)[C@H](C)NC(=O)[C@H](CC(N)=O)NC(=O)[C@H](CCC(N)=O)NC(=O)[C@H](Cc2ccccc2)NC(=O)[C@@H](Cc2ccc(OC)cc2)NC(=O)Cc2ccccc2)C(N)=O)C(=O)NCC(N)=O)NC(=O)[C@H](CC(N)=O)NC(=O)[C@H](CCC(N)=O)NC1=O [Compound 23]	1.7 nM	51%
